Reference: ChEMBL document CHEMBL6177998, “Rational Design of Dual Degraders by Incorporating Molecular Glue Structural Features into PROTAC Degraders” (J Med Chem, 2025)
Active and inactive are the calls of the source. The rule behind the calls is not given here.

Assays:
[1] = Selectivity ratio of IC50 for antiproliferative activity against AR-independent human DU-145 cells assessed as cell growth inhibition to IC50 for antiproliferative activity against AR-dependent human LNCaP cells assessed as cell growth inhibition; format: functional
[2] = system: Protein cereblon/Androgen receptor (Homo sapiens), P10275+Q96SW2 [UNDEFINED MUTATION]; experiment: PROTAC activity at CRBN/Androgen receptor splice variant 7 in human VCaP cells assessed as induction of AR-V7 degradation at 50 nM preincubated with MG132 followed by compound addition and measured after 12 hrs by Western blot analysis; format: cell-based
Chain of Protein cereblon/Androgen receptor (Homo sapiens), P10275+Q96SW2 [UNDEFINED MUTATION] (P10275 whole entry, looked up, change not shown, canonical isoform): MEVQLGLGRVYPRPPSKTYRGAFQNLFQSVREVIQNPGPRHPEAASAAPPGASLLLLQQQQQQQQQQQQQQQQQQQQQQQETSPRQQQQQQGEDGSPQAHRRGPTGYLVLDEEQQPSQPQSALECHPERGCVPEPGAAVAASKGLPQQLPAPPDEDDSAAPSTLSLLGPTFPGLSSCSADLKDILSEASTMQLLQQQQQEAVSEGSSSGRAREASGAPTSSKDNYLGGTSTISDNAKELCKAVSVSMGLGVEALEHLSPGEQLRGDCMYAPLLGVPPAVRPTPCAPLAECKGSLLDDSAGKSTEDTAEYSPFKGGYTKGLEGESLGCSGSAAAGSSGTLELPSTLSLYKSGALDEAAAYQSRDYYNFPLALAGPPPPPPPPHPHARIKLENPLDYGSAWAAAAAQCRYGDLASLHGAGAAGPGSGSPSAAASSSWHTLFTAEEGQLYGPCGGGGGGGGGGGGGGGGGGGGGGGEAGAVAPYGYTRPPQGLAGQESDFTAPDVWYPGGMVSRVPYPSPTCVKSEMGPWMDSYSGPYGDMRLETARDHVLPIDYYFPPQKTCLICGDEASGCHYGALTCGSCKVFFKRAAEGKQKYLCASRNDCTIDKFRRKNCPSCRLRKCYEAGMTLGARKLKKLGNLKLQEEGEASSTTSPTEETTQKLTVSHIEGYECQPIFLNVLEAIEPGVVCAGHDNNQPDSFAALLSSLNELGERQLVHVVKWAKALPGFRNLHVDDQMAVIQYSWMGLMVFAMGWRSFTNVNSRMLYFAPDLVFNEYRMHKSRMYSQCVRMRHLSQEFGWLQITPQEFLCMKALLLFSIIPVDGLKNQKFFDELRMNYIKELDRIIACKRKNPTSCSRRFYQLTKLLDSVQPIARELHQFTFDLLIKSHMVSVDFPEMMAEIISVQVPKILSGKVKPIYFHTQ
Chain of Protein cereblon/Androgen receptor (Homo sapiens), P10275+Q96SW2 [UNDEFINED MUTATION] (Q96SW2 whole entry, looked up, change not shown, canonical isoform): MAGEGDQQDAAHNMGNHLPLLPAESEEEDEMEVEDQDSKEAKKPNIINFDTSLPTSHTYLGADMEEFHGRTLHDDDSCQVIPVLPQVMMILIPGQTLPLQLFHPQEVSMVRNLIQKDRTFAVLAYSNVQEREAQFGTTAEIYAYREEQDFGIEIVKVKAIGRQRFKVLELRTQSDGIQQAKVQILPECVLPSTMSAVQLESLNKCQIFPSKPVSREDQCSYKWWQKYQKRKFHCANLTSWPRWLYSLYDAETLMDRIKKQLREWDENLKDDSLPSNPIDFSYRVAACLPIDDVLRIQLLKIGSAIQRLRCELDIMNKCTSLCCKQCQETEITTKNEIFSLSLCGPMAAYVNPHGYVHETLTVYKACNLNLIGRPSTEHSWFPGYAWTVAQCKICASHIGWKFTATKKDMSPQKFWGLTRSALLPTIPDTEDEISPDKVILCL

[3] = target: T1, Protein cereblon/Androgen receptor (Homo sapiens, UniProt P10275+Q96SW2); experiment: PROTAC activity at CRBN/AR in human 22Rv1 cells assessed as induction of AR degradation at 20 nM incubated for 1 hrs by Western blot analysis (reference value: 0 %); format: cell-based
T1 sequence (P10275 whole entry, looked up): as the sequence (P10275 whole entry, looked up, change not shown, canonical isoform) above
T1 sequence (Q96SW2 whole entry, looked up): as the sequence (Q96SW2 whole entry, looked up, change not shown, canonical isoform) above

[4] = target: Protein cereblon/Zinc finger protein Helios (Homo sapiens) (UniProt Q96SW2+Q9UKS7); experiment: Molecular glue activity at CRBN/IKZF2 in human 22Rv1 cells assessed as induction of IKZF2 degradation at 1 uM incubated for 6 hrs by Western blot analysis; format: cell-based
[5] = target: T2, Protein cereblon/Eukaryotic peptide chain release factor GTP-binding subunit ERF3A (Homo sapiens, UniProt Q96SW2+P15170); experiment: Molecular glue activity at CRBN/GSPT1 in human VCaP cells assessed as induction of GSPT1 degradation at 50 nM preincubated with MLN4924 followed by compound addition and measured after 12 hrs by Western blot analysis; format: cell-based
Target sequence in this assay (P15170 whole entry, looked up): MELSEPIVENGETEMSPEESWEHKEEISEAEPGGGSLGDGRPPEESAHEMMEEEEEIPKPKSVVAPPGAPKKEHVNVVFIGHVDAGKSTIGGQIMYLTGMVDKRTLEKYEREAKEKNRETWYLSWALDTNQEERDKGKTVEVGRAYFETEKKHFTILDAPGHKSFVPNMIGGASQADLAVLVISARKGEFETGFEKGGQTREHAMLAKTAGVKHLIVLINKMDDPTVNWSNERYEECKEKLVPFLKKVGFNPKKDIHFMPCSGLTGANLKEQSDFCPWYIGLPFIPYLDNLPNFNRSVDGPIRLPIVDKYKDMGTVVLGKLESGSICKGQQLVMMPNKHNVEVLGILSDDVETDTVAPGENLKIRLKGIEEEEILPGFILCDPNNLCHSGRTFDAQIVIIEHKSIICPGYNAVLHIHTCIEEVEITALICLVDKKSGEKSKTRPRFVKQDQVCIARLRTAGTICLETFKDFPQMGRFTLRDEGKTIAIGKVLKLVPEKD
Target sequence in this assay (Q96SW2 whole entry, looked up): as the sequence (Q96SW2 whole entry, looked up, change not shown, canonical isoform) above

CWR22R [6] = experiment: Induction of apoptosis in human 22Rv1 cells assessed as increase in cleaved PARP expression incubated for 24 hrs by Western blot analysis; format: functional, cell-based; conditions: dose 1-30 nM
[7] = target: T1, Protein cereblon/Androgen receptor; experiment: PROTAC activity at CRBN/AR in human 22Rv1 cells assessed as induction of AR degradation by measuring maximal efficacy incubated for 24 hrs by Western blot analysis relative to control; format: cell-based
[8] = target: Protein cereblon/Sal-like protein 4 (Homo sapiens) (UniProt Q96SW2+Q9UJQ4); experiment: Molecular glue activity at CRBN/SALL4 in human 22Rv1 cells assessed as induction of SALL4 degradation at 1 uM incubated for 6 hrs by Western blot analysis; format: cell-based
[9] = target: T2, Protein cereblon/Eukaryotic peptide chain release factor GTP-binding subunit ERF3A; experiment: Molecular glue activity at CRBN/GSPT1 in human 22Rv1 cells assessed as induction of GSPT1 degradation by measuring maximal efficacy incubated for 24 hrs by Western blot analysis relative to control; format: cell-based
Target sequence in this assay (P15170 whole entry, looked up): as the sequence (P15170 whole entry, looked up) above
Target sequence in this assay (Q96SW2 whole entry, looked up): as the sequence (Q96SW2 whole entry, looked up, change not shown, canonical isoform) above

[10] = system: Protein cereblon/Androgen receptor (Homo sapiens), P10275+Q96SW2 [UNDEFINED MUTATION]; experiment: PROTAC activity at CRBN/Androgen receptor splice variant 7 in human 22Rv1 cells assessed as induction of AR-V7 degradation at 20 uM preincubated with EPI-002 for 4 hrs followed by compound addition and measured after 36 hrs by Western blot analysis; format: cell-based
[11] = target: T1, Protein cereblon/Androgen receptor; experiment: PROTAC activity at CRBN/AR in human Enzalutamide-resistant VCaP cells assessed as induction of androgen receptor degradation at 1 to 300 nM by Western blot analysis; format: cell-based; conditions: dose 1-300 nM
[12] = target: T1, Protein cereblon/Androgen receptor; experiment: PROTAC activity at CRBN/AR in human 22Rv1 cells assessed as induction of AR degradation at 20 uM preincubated with EPI-002 for 4 hrs followed by compound addition and measured after 36 hrs by Western blot analysis; format: cell-based
[13] = target: T1, Protein cereblon/Androgen receptor; experiment: PROTAC activity at CRBN/AR in human 22Rv1 cells assessed as induction of AR degradation at 50 uM preincubated with thalidomide followed by compound addition and measured after 12 hrs by Western blot analysis; format: cell-based
[14] = AUC in male ICR mouse at 2 mg/kg, iv by LC-MS/MS analysis; format: ADME, organism-based; conditions: in vivo
[15] = target: T2, Protein cereblon/Eukaryotic peptide chain release factor GTP-binding subunit ERF3A; experiment: Molecular glue activity at CRBN/GSPT1 in human LNCaP cells assessed as induction of GSPT1 degradation incubated for 24 hrs by Western blot analysis; format: cell-based
[16] = AUC in male ICR mouse at 10 mg/kg, po by LC-MS/MS analysis; format: ADME, organism-based; conditions: in vivo
[17] = system: Protein cereblon/Androgen receptor (Homo sapiens), P10275+Q96SW2 [UNDEFINED MUTATION]; experiment: PROTAC activity at CRBN/Androgen receptor splice variant 7 in human 22Rv1 cells assessed as induction of AR-V7 degradation at 20 nM incubated for 12 hrs by Western blot analysis (reference value: 0%); format: cell-based
[18] = target: T2, Protein cereblon/Eukaryotic peptide chain release factor GTP-binding subunit ERF3A; experiment: Molecular glue activity at CRBN/GSPT1 in human VCaP cells assessed as induction of GSPT1 degradation at 20 nM measured after 6 hrs by Western blot analysis; format: cell-based
Target sequence in this assay (P15170 whole entry, looked up): as the sequence (P15170 whole entry, looked up) above
Target sequence in this assay (Q96SW2 whole entry, looked up): as the sequence (Q96SW2 whole entry, looked up, change not shown, canonical isoform) above

[19] = target: T1, Protein cereblon/Androgen receptor; experiment: In vivo PROTAC activity at CRBN/AR in male NOD SCID mouse model xenografted with human LNCaP cells assessed as reduction in androgen receptor level in tumor at 20 mg/kg, po administered daily for 26 days by Western blot analysis; format: functional, organism-based; conditions: time 26.0 day
[20] = target: T2, Protein cereblon/Eukaryotic peptide chain release factor GTP-binding subunit ERF3A; experiment: Binding affinity to CRBN/GSPT1 in human 22Rv1 cells assessed as ternary complex formation incubated for 6 hrs by co-immunoprecipitation based Western blot analysis; format: cell-based
Target sequence in this assay (P15170 whole entry, looked up): as the sequence (P15170 whole entry, looked up) above
Target sequence in this assay (Q96SW2 whole entry, looked up): as the sequence (Q96SW2 whole entry, looked up, change not shown, canonical isoform) above

[21] = Toxicity in male NOD SCID mouse model xenografted with human LNCaP cells assessed as body weight loss at 20 mg/kg, po administered daily for 26 days; format: organism-based; conditions: in vivo, 624 h, time 26 day
[22] = target: T2, Protein cereblon/Eukaryotic peptide chain release factor GTP-binding subunit ERF3A; experiment: Molecular glue activity at CRBN/GSPT1 in human VCaP cells assessed as induction of GSPT1 degradation incubated for 24 hrs by Western blot analysis; format: cell-based
[23] = Cmax in male ICR mouse at 2 mg/kg, iv by LC-MS/MS analysis; format: ADME, organism-based; conditions: in vivo
[24] = target: T1, Protein cereblon/Androgen receptor; experiment: PROTAC activity at CRBN/AR in human LNCaP cells assessed as decrease in TMPRSS2 protein level incubated for 24 hrs by Western blot analysis; format: cell-based; conditions: dose 1-100 nM
[25] = target: T2, Protein cereblon/Eukaryotic peptide chain release factor GTP-binding subunit ERF3A; experiment: Molecular glue activity at CRBN/GSPT1 in human 22Rv1 cells assessed as induction of GSPT1 degradation at 50 uM preincubated with thalidomide followed by compound addition and measured after 12 hrs by Western blot analysis; format: cell-based
Target sequence in this assay (P15170 whole entry, looked up): as the sequence (P15170 whole entry, looked up) above
Target sequence in this assay (Q96SW2 whole entry, looked up): as the sequence (Q96SW2 whole entry, looked up, change not shown, canonical isoform) above

[26] = target: Cereblon/Ikaros (Homo sapiens) (UniProt Q96SW2+Q13422); experiment: Molecular glue activity at CRBN/IKZF1 in human 22Rv1 cells assessed as induction of IKZF1 degradation at 1 uM incubated for 6 hrs by Western blot analysis; format: cell-based
[27] = target: Protein cereblon/Zinc finger protein Aiolos (Homo sapiens) (UniProt Q96SW2+Q9UKT9); experiment: Molecular glue activity at CRBN/IKZF3 in human 22Rv1 cells assessed as induction of IKZF3 degradation at 1 uM incubated for 6 hrs by Western blot analysis; format: cell-based
Chain of Protein cereblon/Zinc finger protein Aiolos (Homo sapiens) (Q96SW2 whole entry, looked up): as the sequence (Q96SW2 whole entry, looked up, change not shown, canonical isoform) above
Chain of Protein cereblon/Zinc finger protein Aiolos (Homo sapiens) (Q9UKT9 whole entry, looked up): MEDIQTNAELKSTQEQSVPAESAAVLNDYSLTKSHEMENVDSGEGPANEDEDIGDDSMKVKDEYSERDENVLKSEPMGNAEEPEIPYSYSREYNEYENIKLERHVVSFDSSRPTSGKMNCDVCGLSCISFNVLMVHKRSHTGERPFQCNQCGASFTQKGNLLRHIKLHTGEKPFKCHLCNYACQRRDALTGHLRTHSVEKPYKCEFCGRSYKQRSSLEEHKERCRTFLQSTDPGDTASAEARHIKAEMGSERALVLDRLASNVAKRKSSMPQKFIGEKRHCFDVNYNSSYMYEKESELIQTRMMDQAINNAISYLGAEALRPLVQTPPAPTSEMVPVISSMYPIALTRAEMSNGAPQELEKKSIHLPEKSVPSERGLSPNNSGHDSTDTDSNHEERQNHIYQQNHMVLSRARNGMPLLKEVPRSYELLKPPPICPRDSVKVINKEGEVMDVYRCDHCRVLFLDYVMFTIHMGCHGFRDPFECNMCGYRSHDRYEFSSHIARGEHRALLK

CWR22R [28] = experiment: Cell cycle arrest in human 22Rv1 cells assessed as accumulation of cells at G1 phase at 1 nM incubated for 24 hrs by flow cytometric analysis (reference value: 49.7 %); format: functional
VCaP = experiment: Antiproliferative activity against AR-dependent human VCaP cells assessed as cell growth inhibition incubated for 72 hrs by Celltiter-lumi luminescent cell viability assay; format: functional, cell-based

COc1ccc(C(C)(C)c2cc(Cl)c(OCC3CCN(C(=O)CCCCCNc4ccc5c(c4)C(=O)N(C4CCC(=O)NC4=O)C5=O)CC3)c(C#N)c2)cc1 (stereo unspecified)
Ratio IC50 [1]: 315 | Activity [2]: inactive | Activity [3]: 49% | Activity [4]: inactive | Activity [5]: inactive | Activity (CWR22R [6]): Dose-dependent-effect | Emax [7]: 90% | Activity [8]: inactive | Emax [9]: 94.2% | Activity [10]: inactive | Activity [11]: Active | Activity [12]: inactive | Activity [13]: inactive | AUC [14]: 1850 ng·h/mL | Activity [15]: Dose-dependent-effect | DC50 [15]: 0.9 nM | AUC [16]: 1040 ng·h/mL | Activity [17]: 56.6% | Activity [18]: Active | Activity [19]: Active | Activity [20]: Active | Activity [21]: Non-toxic | Activity [22]: Dose-dependent-effect | DC50 [22]: 0.6 nM | Cmax [23]: 1120 ng/mL | Activity [24]: Dose-dependent-effect | Activity [25]: inactive | Activity [26]: inactive | Activity [27]: inactive | Activity (CWR22R [28]): 50.3% | IC50 (VCaP): 1.5 nM
